According to EP3572411A1, “THIAZOLE DERIVATIVES AS METALLO-BETA-LACTAMASE INHIBITORS” (Antabio SAS, priority 2018, dated 2019):
Read-outs that look alike come from different tables or passages of the source.

Tests used:
IMP-1 = target: T1, IMP-1 (Serratia marcescens, UniProt P52699); assay: In vitro enzyme inhibition assay (imipenem hydrolysis, UV 299 nm); type: biochemical
T1 construct: VIM-1; VIM-2
Protocol: (§1) In vitro enzyme inhibition assays: Enzyme inhibition assays are performed using purified MBL enzymes (NDM-1; VIM-1; VIM-2; IMP-1) in 10mM HEPES buffer pH 7.5 in 96-well microtiter plates. Imipenem (300µM) is used as substrates and its hydrolysis is followed at UV 299 nm during 10mn every 30 seconds using a Perkin Elmer Envision UV fluorescence plate reader. Hydrolysis rate data in presence of a range of inhibitors are analysed using Dotmatics database software and calculated IC50 values are converted to Ki values using the Cheng-Prusoff equation. Ki = IC50 / (1+([S]/Km) and where the Km values for […] are 70 µM, 1.5 µM, 9 µM and 25 µM respectively. Compound dilution is performed in DMSO. Mean Ki values from multiple experiments are presented. Results are shown in Table 1.

NDM-1 = target: T2, NDM-1 (Klebsiella pneumoniae, UniProt C7C422); assay: as above; type: biochemical
T2 construct: VIM-1; VIM-2
Protocol: as §1

VIM-1 = target: T3, VIM-1 (Pseudomonas aeruginosa, UniProt A0A0F7KYQ8); assay: as above; type: biochemical
T3 construct: VIM-1; VIM-2; IMP-1)
Protocol: as §1

VIM-2 = target: T4, VIM-2 (Escherichia coli, UniProt Q5U7L7); assay: as above; type: biochemical
T4 construct: VIM-1; VIM-2
Protocol: as §1

[1] = tested on: NTBC018 (C. freundii strain expressing VIM-2); assay: Antimicrobial susceptibility testing (broth micro-dilution, Meropenem potentiation); type: cell-based; details: MIC of Meropenem with compound at constant 8 µg/mL; CAMHB, 18-20 hours, 37°C
Protocol: (§2) Antimicrobial susceptibility testing: The operation is carried out using the 'broth micro-dilution method' according to the protocols M07-A8 established by the Clinical Laboratory Standards Institute (CLSI). Serial dilutions of the β-lactam antibiotic (Meropenem) are prepared in 96-well plates in cation-adjusted Mueller-Hinton broth (CAMHB); the concentration range is defined from 0.03 mg/L to 512 mg/L. The compounds are added at a constant concentration of 8 µg/mL. A bacterial inoculum of each strain (clinical isolates) is adjusted to a 0.5 McFarland turbidity standard in physiologic serum (0.9 % NaCl), then diluted 1:100 in CAMHB and added to each well to give a final bacterial cell number of 5x10^5 CFU/well. After incubation for 18-20 hours in a heating chamber at 37°C, the growth inhibition is evaluated by the absence of any bacterial development.
(§3) The compounds of Table 2 are added at a constant concentration of 8 µg/mL. The clinical strains used in these potentiation experiments are NTBC020 (E. coli strain expressing NDM-1, TEM-1 and CTX-M-15); NTBC035-2 (K. pneumoniae strain expressing NDM-1, CMY-4 and SHV-11); NTBC104-1 (K. pneumoniae strain expressing NDM-1 and SHV-11); NTBC123 (K. pneumoniae strain expressing NDM-1); NTBC018 (C. freundii strain expressing VIM-2); NTBC024 (K. pneumoniae strain expressing VIM-19, TEM-1 and CTX-M-3); NTBC042 (E. coli strain expressing VIM-1, TEM-1 , CTX-M-15, SHV-12); NTBC055 (E. Coli strain expressing VIM-1); NTBC062 (K. pneumoniae strain expressing IMP-1 and TEM-1) and NTBC039 (K. oxytoca strain expressing IMP-28). • For NDM-1 the Ki values of < 0.05 µM are designated (A); Ki values of 0.05 - 0.2 µM are designated (B); Ki values of 0.2 - 0.4 µM are designated (C). • For VIM-1 the Ki values of < 0.2 µM are designated (A); Ki values of 0.2 - 0.5 µM are designated (B); Ki values of 0.5 - 0.8 µM are designated (C). • For VIM-2 the Ki values of < 0.02 µM are designated (A); Ki values of 0.02 - 0.05 µM are designated (B); Ki values of 0.05 - 0.2 µM are designated (C). • For IMP-1 the Ki values of < 0.5 µM are designated (A); Ki values of 0.5 - 1 µM are designated (B); Ki values of 1 - 8 µM are designated (C). • MIC values of < 1 µg/mL are designated (A); MIC values of 1 - 2 µg/mL are designated (B); • MIC values of 2 - 128 µg/mL are designated (C). Table 1. Ki results

[2] = tested on: NTBC020 (E. coli strain expressing NDM-1, TEM-1 and CTX-M-15); assay: as above; type: cell-based; details: MIC of Meropenem with compound at constant 8 µg/mL; CAMHB, 18-20 hours, 37°C
Protocol: as §2, §3

[3] = tested on: NTBC024 (K. pneumoniae strain expressing VIM-19, TEM-1 and CTX-M-3); assay: as above; type: cell-based; details: MIC of Meropenem with compound at constant 8 µg/mL; CAMHB, 18-20 hours, 37°C
Protocol: as §2, §3

[4] = tested on: NTBC035-2 (K. pneumoniae strain expressing NDM-1, CMY-4 and SHV-11); assay: as above; type: cell-based; details: MIC of Meropenem with compound at constant 8 µg/mL; CAMHB, 18-20 hours, 37°C
Protocol: as §2, §3

[5] = tested on: NTBC039 (K. oxytoca strain expressing IMP-28); assay: as above; type: cell-based; details: MIC of Meropenem with compound at constant 8 µg/mL; CAMHB, 18-20 hours, 37°C
Protocol: as §2, §3

[6] = tested on: NTBC042 (E. coli strain expressing VIM-1, TEM-1 , CTX-M-15, SHV-12); assay: as above; type: cell-based; details: MIC of Meropenem with compound at constant 8 µg/mL; CAMHB, 18-20 hours, 37°C
Protocol: as §2, §3

[7] = tested on: NTBC055 (E. Coli strain expressing VIM-1); assay: as above; type: cell-based; details: MIC of Meropenem with compound at constant 8 µg/mL; CAMHB, 18-20 hours, 37°C
Protocol: as §2, §3

[8] = tested on: NTBC062 (K. pneumoniae strain expressing IMP-1 and TEM-1); assay: as above; type: cell-based; details: MIC of Meropenem with compound at constant 8 µg/mL; CAMHB, 18-20 hours, 37°C
Protocol: as §2, §3

[9] = tested on: NTBC104-1 (K. pneumoniae strain expressing NDM-1 and SHV-11); assay: as above; type: cell-based; details: MIC of Meropenem with compound at constant 8 µg/mL; CAMHB, 18-20 hours, 37°C
Protocol: as §2, §3

[10] = tested on: NTBC123 (K. pneumoniae strain expressing NDM-1); assay: as above; type: cell-based; details: MIC of Meropenem with compound at constant 8 µg/mL; CAMHB, 18-20 hours, 37°C
Protocol: as §2, §3

[11] = purified enzyme, 10mM HEPES pH 7.5, Imipenem 300µM; mean Ki from IC50 by Cheng-Prusoff; read-out: Ki (µM) IMP-1
[12] = purified enzyme, 10mM HEPES pH 7.5, Imipenem 300µM; mean Ki from IC50 by Cheng-Prusoff; read-out: Ki (µM) NDM-1
[13] = purified enzyme, 10mM HEPES pH 7.5, Imipenem 300µM; mean Ki from IC50 by Cheng-Prusoff; read-out: Ki (µM) VIM-1
[14] = purified enzyme, 10mM HEPES pH 7.5, Imipenem 300µM; mean Ki from IC50 by Cheng-Prusoff; read-out: Ki (µM) VIM-2
[15] = read-out: Ki (µM) IMP-1; purified enzyme, 10mM HEPES pH 7.5, Imipenem 300µM; mean Ki from IC50 by Cheng-Prusoff
[16] = read-out: Ki (µM) NDM-1; purified enzyme, 10mM HEPES pH 7.5, Imipenem 300µM; mean Ki from IC50 by Cheng-Prusoff
[17] = read-out: Ki (µM) VIM-1; purified enzyme, 10mM HEPES pH 7.5, Imipenem 300µM; mean Ki from IC50 by Cheng-Prusoff
[18] = read-out: Ki (µM) VIM-2; purified enzyme, 10mM HEPES pH 7.5, Imipenem 300µM; mean Ki from IC50 by Cheng-Prusoff

T1 sequence (P52699 19-246, looked up, species assumed): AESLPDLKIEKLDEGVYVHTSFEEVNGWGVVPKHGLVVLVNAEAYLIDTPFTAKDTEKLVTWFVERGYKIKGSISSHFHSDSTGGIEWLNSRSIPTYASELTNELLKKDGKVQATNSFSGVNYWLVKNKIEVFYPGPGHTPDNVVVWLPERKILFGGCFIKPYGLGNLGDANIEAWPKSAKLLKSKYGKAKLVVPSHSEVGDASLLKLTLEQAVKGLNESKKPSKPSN
T2 sequence (C7C422 29-270, looked up): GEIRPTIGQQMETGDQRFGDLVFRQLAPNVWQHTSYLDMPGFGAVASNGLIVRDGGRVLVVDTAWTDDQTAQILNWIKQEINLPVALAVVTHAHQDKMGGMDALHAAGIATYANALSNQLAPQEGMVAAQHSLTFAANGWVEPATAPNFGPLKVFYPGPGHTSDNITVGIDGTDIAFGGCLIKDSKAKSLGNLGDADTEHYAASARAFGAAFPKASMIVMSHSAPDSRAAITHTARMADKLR

Compound	Ki (IMP-1; [11]) [µM]	Ki (NDM-1; [12]) [µM]	Ki (VIM-1; [13]) [µM]	Ki (VIM-2; [14]) [µM]	MIC Strain NTBC018 [1]	MIC Strain NTBC020 [2]	MIC Strain NTBC024 [3]	MIC Strain NTBC035-2 [4]	MIC Strain NTBC039 [5]	MIC Strain NTBC042 [6]	MIC Strain NTBC055 [7]	MIC Strain NTBC062 [8]	MIC Strain NTBC104-1 [9]	MIC Strain NTBC123 [10]	Ki (IMP-1; [15]) [µM]	Ki (NDM-1; [16]) [µM]	Ki (VIM-1; [17]) [µM]	Ki (VIM-2; [18]) [µM]
3-(3-carbamimidamidopropyl)-1-[({4-[(4-carboxy-1,3-thiazol-5-yl)sulfamoyl]-2-fluorophenyl}carbamoyl)methyl]-1H-imidazol-3-ium [Example 17]	1 to 8	< 0.05	< 0.2	< 0.02	(A) (MIC values of < 1 µg/mL are designated (A))	(C) (MIC values of 2 - 128 µg/mL are designated (C))	(B) (MIC values of 1 - 2 µg/mL are designated (B))	(B) (MIC values of 1 - 2 µg/mL are designated (B))	(C) (MIC values of 2 - 128 µg/mL are designated (C))	d(B) (MIC values of 1 - 2 µg/mL are designated (B))	(B) (MIC values of 1 - 2 µg/mL are designated (B))	(B) (MIC values of 1 - 2 µg/mL are designated (B))	(C) (MIC values of 2 - 128 µg/mL are designated (C))	(C) (MIC values of 2 - 128 µg/mL are designated (C))				
3-[({4-[(4-carboxy-1,3-thiazol-5-yl)sulfamoyl]-2-fluorophenyl}carbamoyl)methyl]-1-[2-(trimethylammonio)ethyl]imidazol-1-ium [Example 21]	1 to 8	< 0.05	< 0.2	< 0.02	(B) (MIC values of 1 - 2 µg/mL are designated (B))	(C) (MIC values of 2 - 128 µg/mL are designated (C))	(C) (MIC values of 2 - 128 µg/mL are designated (C))	(C) (MIC values of 2 - 128 µg/mL are designated (C))	(B) (MIC values of 1 - 2 µg/mL are designated (B))	(B) (MIC values of 1 - 2 µg/mL are designated (B))	(B) (MIC values of 1 - 2 µg/mL are designated (B))	(B) (MIC values of 1 - 2 µg/mL are designated (B))	(B) (MIC values of 1 - 2 µg/mL are designated (B))	(C) (MIC values of 2 - 128 µg/mL are designated (C))				
C[n+]1ccn(CC(=O)Nc2c(F)cc(S(=O)(=O)Nc3scnc3C(=O)[O-])cc2F)n1 [Example 23, 1-[({4-[(4-carboxy-1,3-thiazol-5-yl)sulfamoyl]-2,6-difluorophenyl}carbamoyl)methyl]-3-methyl-1H-1,2,3-triazol-3-ium]															1 to 8	0.05 to 0.2	0.2 to 0.5	0.05 to 0.2
CC[n+]1ccn(CC(=O)Nc2ccc(S(=O)(=O)Nc3scnc3C(=O)[O-])cc2F)n1 [Example 24, 1-[({4-[(4-carboxy-1,3-thiazol-5-yl)sulfamoyl]-2-fluorophenyl}carbamoyl)methyl]-3-ethyl-1H-1,2,3-triazol-3-ium]															0.5 to 1	0.05 to 0.2	0.2 to 0.5	0.05 to 0.2
C[n+]1cnn(CC(=O)Nc2ccc(S(=O)(=O)Nc3scnc3C(=O)[O-])cc2F)c1 [Example 25, 1-[({4-[(4-carboxy-1,3-thiazol-5-yl)sulfamoyl]-2-fluorophenyl}carbamoyl)methyl]-4-methyl-1H-1,2,4-triazol-4-ium]															1 to 8	0.05 to 0.2	0.2 to 0.5	0.05 to 0.2
C[n+]1nnn(CC(=O)Nc2ccc(S(=O)(=O)Nc3scnc3C(=O)[O-])cc2F)c1N [Example 26, 5-amino-1-[({4-[(4-carboxy-1,3-thiazol-5-yl)sulfamoyl]-2-fluorophenyl}carbamoyl)methyl]-4-methyl-1H-1,2,3,4-tetrazol-4-ium]															0.5 to 1	< 0.05	0.2 to 0.5	0.05 to 0.2
